Data taken from patent US12391664B2, “GluN2C/D subunit selective antagonists of the N-methyl-D-aspartate receptor” (Emory University, priority 2018, dated 2025).
Where two headings read alike, the source gives them in different places. Marks after values point to notes of the source that are not given here.

What was measured:
[1] = target: T1, recombinant rat GluN1/GluN2C (Rattus norvegicus, UniProt Q00961); experiment: Two-electrode voltage-clamp recordings in Xenopus laevis oocytes, GluN2C; assay type: cell-based; conditions: for GluN2C IC50: oocytes, 100 μM glutamate and 30 μM glycine; for I3 μM/Icontrol (mean ± SEM, %) GluN2C: 3 μM compound with 100 μM glutamate and 30 μM glycine, control set as 1
T1 construct: expressed in transfected cells; host or cells: Xenopus laevis oocytes injected with cRNA (GluN1:GluN2 ratio 1:2)
Method in brief: (§1)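 Oocytes injected with rat GluN1/GluN2 cRNA (1:2), held 2–5 days at 15–17 °C, clamped at −40 mV in Ba2+-containing recording solution, pH 7.4, 23 °C. Compounds applied (up to 100 μM) with 100 μM glutamate plus 30 μM glycine. IC50 and Hill slope from concentration-response fits of averaged current inhibition.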

[2] = target: T2, recombinant rat GluN1/GluN2D (Rattus norvegicus, UniProt Q62645); experiment: Two-electrode voltage-clamp recordings in Xenopus laevis oocytes, GluN2D; assay type: cell-based; conditions: for GluN2D IC50: oocytes, 100 μM glutamate and 30 μM glycine
T2 construct: expressed in transfected cells; host or cells: Xenopus laevis oocytes injected with cRNA (GluN1:GluN2 ratio 1:2)
Method in brief: as §1

[3] = target: T3, recombinant rat GluN1/GluN2A (Rattus norvegicus, UniProt Q00959); experiment: Two-electrode voltage-clamp recordings in Xenopus laevis oocytes, GluN2A; assay type: cell-based; conditions: for GluN2A IC50: oocytes, 100 μM glutamate and 30 μM glycine; for I3 μM/Icontrol (mean ± SEM, %) GluN2A: 3 μM compound with 100 μM glutamate and 30 μM glycine, control set as 1
T3 construct: expressed in transfected cells; host or cells: Xenopus laevis oocytes injected with cRNA (GluN1:GluN2 ratio 1:2)
Method in brief: as §1

[4] = target: T4, recombinant rat GluN1/GluN2B (Rattus norvegicus, UniProt Q00960); experiment: Two-electrode voltage-clamp recordings in Xenopus laevis oocytes, GluN2B; assay type: cell-based; conditions: for GluN2B IC50: oocytes, 100 μM glutamate and 30 μM glycine; for I3 μM/Icontrol (mean ± SEM, %) GluN2B: 3 μM compound with 100 μM glutamate and 30 μM glycine, control set as 1
T4 construct: expressed in transfected cells; host or cells: Xenopus laevis oocytes injected with cRNA (GluN1:GluN2 ratio 1:2)
Method in brief: as §1

[5] = system: recombinant GluN2A-D subunits; experiment: Two-electrode voltage-clamp recordings, statements on all receptors; assay type: cell-based, rat
Procedure: All target compounds were evaluated for activity by the Traynelis laboratory at Emory University using two-electrode voltage-clamp recordings performed in Xenopus laevis oocytes expressing recombinant GluN2A-D subunits (Table 1). […] Two ester compounds 997-65 and 997-66 also performed no inhibition at GluN2A to GluN2D receptors. […] Consequently, for the compounds that Acker et al. already published, it was necessary to increase the concentration to 100 μM when collecting data for a concentration effect curve. […] Therefore, under this condition, we can only conclude that compound 997-67 remained potent at GluN2C/D-containing receptors, but its selectivity over GluN2A- and GluN2B-containing receptors could not be compared to 997-57. […] Finally, replacing the carboxylic acid to the bio-isostere amide yielded compounds 997-96 and 997-115, which dropped the potency 2- to 4-fold in comparison to their corresponding acids 997-74 and 997-114.
Two-electrode voltage-clamp recordings were performed in Xenopus laevis oocytes that were injected with mRNA to express recombinant rat GluN1/GluN2A, GluN1/GluN2B, GluN1/GluN2C, and GluN1/GluN2D. The recordings using unfertilized oocytes from Xenopus laevis were permitted by Emory University Institutional Animal Care and Use Committee (IACUC). An automatic injector (Nanoject II, Drummond Scientific) was used for cRNA injection using the pipettes filled with mineral oil. The cRNA that transcribed in vitro via the mMessage Machine kit (Ambion) was diluted with nuclease-free water, and then injected at GluN1/GluN2 with a ratio of 1:2. The oocytes were stored in Barth's solution that contained 88 mM NaCl, 5.0 mM Tris-HCl, 2.4 mM NaHCO3, 1.0 mM KCl, 0.84 mM MgSO4, 0.41 mM CaCl2, 0.33 mM Ca(NO3)2, 0.1 mg/ml gentamycin sulfate, 1.0 U/ml penicillin, and 1 μg/ml streptomycin at a pH of 7.4 and temperatures of 15-17° C. for two to five days before the two-electrode voltage-clamp recordings. When recording, the oocytes were placed in a perfusion chamber and continually washed with the recording solution comprised of 90 mM NaCl, 1.0 mM KCl, 0.50 mM BaCl2, 0.005 mM EDTA, and 10 mM HEPES at a pH of 7.4 and a temperature of 23° C. Glass electrodes with a tip resistance of 0.5 to 2.5 MΩ were obtained from thin-walled glass capillary tubes. Voltage electrodes and current electrodes were filled with 0.3 M and 3.0 M KCl, respectively. The recordings were executed with the oocytes membrane potential holding at −40 m V by an OC-725 amplifier (Warner Instrument Co). All compounds were dissolved in dimethyl sulfoxide (DMSO) as 20 mM stock solutions and future diluted to reach the desired concentration (0.05-0.5% (vol/vol) DMSO) in recording solution comprised of 30 μM glycine and 100 μM glutamate. Each compound was recorded 3-7 times in the least 4 oocytes from at least 2 different Xenopus laevis.
To evaluate the inhibition of compounds, the concentration-response curve was fitted with the average two-electrode voltage-clamp recording results with the equation
[formula] • where IC50 is the concentration of compounds that inhibit half maximal of the current response and N is the Hill slope.

[6] = target: T5, recombinant rat GluN1/GluN2C (Rattus norvegicus, UniProt P35439+Q00961); experiment: Two-electrode voltage-clamp recordings in Xenopus laevis oocytes, GluN2C; assay type: cell-based
T5 construct: expressed in transfected cells; host or cells: Xenopus laevis oocytes injected with cRNA (GluN1:GluN2 ratio 1:2)
Method in brief: as §1

[7] = target: T6, recombinant rat GluN1/GluN2D (Rattus norvegicus, UniProt P35439+Q62645); experiment: Two-electrode voltage-clamp recordings in Xenopus laevis oocytes, GluN2D; assay type: cell-based
T6 construct: expressed in transfected cells; host or cells: Xenopus laevis oocytes injected with cRNA (GluN1:GluN2 ratio 1:2)
Method in brief: as §1

[8] = target: T7, recombinant rat GluN1/GluN2A (Rattus norvegicus, UniProt P35439+Q00959); experiment: Two-electrode voltage-clamp recordings in Xenopus laevis oocytes, GluN2A; assay type: cell-based; conditions: oocytes, 100 μM glutamate and 30 μM glycine
T7 construct: expressed in transfected cells; host or cells: Xenopus laevis oocytes injected with cRNA (GluN1:GluN2 ratio 1:2)
Method in brief: as §1

[9] = target: T8, recombinant rat GluN1/GluN2B (Rattus norvegicus, UniProt P35439+Q00960); experiment: Two-electrode voltage-clamp recordings in Xenopus laevis oocytes, GluN2B; assay type: cell-based; conditions: oocytes, 100 μM glutamate and 30 μM glycine
T8 construct: expressed in transfected cells; host or cells: Xenopus laevis oocytes injected with cRNA (GluN1:GluN2 ratio 1:2)
Method in brief: as §1

[10] = mean IC50 with bottom and top 95% confidence interval, read-out: Avg. GluN2C IC50 (95% CI)
[11] = oocytes, 100 μM glutamate and 30 μM glycine, read-out: GluN2C IC50
[12] = mean IC50 with bottom and top 95% confidence interval, read-out: Avg. GluN2D IC50 (95% CI)
[13] = oocytes, 100 μM glutamate and 30 μM glycine, read-out: GluN2D IC50

T7 sequence (Q00959 23-1464, other chains not shown): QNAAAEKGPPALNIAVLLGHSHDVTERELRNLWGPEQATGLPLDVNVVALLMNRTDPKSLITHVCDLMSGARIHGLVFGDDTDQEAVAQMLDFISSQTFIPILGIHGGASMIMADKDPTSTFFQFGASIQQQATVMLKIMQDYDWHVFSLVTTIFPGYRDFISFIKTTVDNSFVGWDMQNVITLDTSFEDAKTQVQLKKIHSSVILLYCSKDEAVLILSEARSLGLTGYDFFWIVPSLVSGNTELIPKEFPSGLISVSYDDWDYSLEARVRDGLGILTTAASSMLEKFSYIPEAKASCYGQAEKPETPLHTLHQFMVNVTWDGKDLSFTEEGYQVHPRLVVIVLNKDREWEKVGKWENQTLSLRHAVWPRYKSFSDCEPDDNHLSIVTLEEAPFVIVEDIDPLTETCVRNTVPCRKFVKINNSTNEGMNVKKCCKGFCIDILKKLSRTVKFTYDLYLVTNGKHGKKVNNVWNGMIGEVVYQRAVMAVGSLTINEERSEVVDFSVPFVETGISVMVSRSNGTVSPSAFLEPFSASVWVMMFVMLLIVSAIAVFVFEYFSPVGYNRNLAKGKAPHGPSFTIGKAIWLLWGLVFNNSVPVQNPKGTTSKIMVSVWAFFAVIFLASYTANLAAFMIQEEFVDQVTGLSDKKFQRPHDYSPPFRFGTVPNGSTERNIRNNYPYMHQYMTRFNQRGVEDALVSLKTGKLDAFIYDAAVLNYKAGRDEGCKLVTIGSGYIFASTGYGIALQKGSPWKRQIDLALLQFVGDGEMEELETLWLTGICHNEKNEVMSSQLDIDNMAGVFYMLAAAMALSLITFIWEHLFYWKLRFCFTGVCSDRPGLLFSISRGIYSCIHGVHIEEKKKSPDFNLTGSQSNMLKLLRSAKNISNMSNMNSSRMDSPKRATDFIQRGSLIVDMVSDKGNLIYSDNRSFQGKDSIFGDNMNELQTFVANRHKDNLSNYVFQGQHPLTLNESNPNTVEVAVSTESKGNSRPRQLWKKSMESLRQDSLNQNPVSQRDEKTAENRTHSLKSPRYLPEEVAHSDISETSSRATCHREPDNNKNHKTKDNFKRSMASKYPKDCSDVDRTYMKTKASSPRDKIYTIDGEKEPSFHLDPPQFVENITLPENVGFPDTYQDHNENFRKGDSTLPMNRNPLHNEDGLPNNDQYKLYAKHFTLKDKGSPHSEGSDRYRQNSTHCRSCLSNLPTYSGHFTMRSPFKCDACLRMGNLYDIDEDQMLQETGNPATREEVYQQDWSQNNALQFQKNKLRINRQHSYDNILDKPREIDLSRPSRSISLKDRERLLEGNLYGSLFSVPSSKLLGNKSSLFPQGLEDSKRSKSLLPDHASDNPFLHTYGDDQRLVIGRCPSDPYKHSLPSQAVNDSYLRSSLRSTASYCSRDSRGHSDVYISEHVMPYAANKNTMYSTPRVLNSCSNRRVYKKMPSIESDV
T3 sequence (Q00959 23-1464, other chains not shown): as above
T1 sequence (Q00961 20-1237, other chains not shown): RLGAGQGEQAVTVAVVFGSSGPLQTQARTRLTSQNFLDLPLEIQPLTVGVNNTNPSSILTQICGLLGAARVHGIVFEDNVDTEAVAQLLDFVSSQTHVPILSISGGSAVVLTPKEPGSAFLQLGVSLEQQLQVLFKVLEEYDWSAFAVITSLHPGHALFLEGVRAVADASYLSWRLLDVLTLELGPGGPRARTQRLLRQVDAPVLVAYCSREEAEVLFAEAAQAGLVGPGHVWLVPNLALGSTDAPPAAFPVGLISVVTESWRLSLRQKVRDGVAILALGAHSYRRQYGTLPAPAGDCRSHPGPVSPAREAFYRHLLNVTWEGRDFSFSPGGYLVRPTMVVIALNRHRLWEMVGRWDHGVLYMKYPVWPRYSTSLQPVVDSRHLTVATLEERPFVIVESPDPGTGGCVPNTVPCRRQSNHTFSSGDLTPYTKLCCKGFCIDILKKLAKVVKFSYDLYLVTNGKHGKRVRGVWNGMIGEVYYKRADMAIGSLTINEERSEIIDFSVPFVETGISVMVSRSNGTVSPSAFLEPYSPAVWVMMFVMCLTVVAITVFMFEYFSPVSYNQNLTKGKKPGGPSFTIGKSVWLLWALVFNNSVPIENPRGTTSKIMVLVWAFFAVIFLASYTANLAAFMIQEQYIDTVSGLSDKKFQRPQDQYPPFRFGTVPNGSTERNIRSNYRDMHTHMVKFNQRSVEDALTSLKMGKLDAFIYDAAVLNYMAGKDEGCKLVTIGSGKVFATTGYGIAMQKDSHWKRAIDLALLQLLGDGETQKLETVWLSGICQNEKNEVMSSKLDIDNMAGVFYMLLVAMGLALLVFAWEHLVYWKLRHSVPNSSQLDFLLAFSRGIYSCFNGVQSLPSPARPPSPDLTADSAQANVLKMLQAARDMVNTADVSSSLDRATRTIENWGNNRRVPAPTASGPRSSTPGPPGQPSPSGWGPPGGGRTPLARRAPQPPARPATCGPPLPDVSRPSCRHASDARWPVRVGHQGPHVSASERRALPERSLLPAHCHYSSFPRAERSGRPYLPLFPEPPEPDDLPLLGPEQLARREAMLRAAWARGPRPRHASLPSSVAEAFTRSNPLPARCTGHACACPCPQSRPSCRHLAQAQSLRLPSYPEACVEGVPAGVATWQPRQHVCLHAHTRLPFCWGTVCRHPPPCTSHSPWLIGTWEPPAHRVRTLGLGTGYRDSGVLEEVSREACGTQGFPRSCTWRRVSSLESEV
T5 sequence (Q00961 20-1237, other chains not shown): as above

Structure (SMILES)	GluN2C IC50 [1]	GluN2D IC50 [2]	GluN2A IC50 [3]	GluN2B IC50 [4]	activity at all receptors (GluN2A to GluN2D), in words [5]	IC50 [6, 11] [nM]	IC50 [7, 13] [nM]	IC50 [8] [nM]	IC50 [9] [nM]	other results
O=C(/C=C/c1ccc(Cl)cc1)c1c(-c2cccc(F)c2)c2ccccc2[nH]c1=O [997-71, (E)-3-[3-(4-chlorophenyl)acryloyl]-4-(3-fluorophenyl)quinolin-2(1H)-one]	NE (NE indicates less than 50% inhibition at 30 μM.)	NE (NE indicates less than 50% inhibition at 30 μM.)	NE (NE indicates less than 50% inhibition at 30 μM.)	NE (NE indicates less than 50% inhibition at 30 μM.)	inactive	–	–	–	–	–
Cc1ccc2[nH]c(=O)c(C3=NN(C(=O)C(F)(F)CC(=O)O)C(c4ccc(Cl)cc4)C3)c(-c3ccc(Cl)cc3)c2c1 (single isomer, unassigned; (+)) [(+)-997-90]	–	–	–	–	–	2100	< 1000	4100	1800	I3 μM/Icontrol (mean ± SEM, %) GluN2C ([1]; listed as (+)-90): 36 ± 3.0%; IC50 [6, 10]: 2100 nM; I/Icontrol (mean ± SEM, %) GluN2D, data with ** ([2]; 1 μM compound with 100 μM glutamate and 30 μM glycine, control set as 1): 31 ± 9.8** %; IC50 [7, 12]: 660 nM; I3 μM/Icontrol (mean ± SEM, %) GluN2A ([3]; listed as (+)-90): 72 ± 2.9%; I3 μM/Icontrol (mean ± SEM, %) GluN2B ([4]; listed as (+)-90): 53 ± 3.6%
O=c1[nH]c2ccccc2c(-c2ccc(Cl)cc2)c1C1=NNC(c2ccc(Cl)cc2)C1 (stereo not drawn) [997-70, 4-(4-chlorophenyl)-3-[5-(4-chlorophenyl)-4,5-dihydro-1H-pyrazol-3-yl]quinolin-2(1H)-one]	NE (NE indicates less than 50% inhibition at 30 μM.)	NE (NE indicates less than 50% inhibition at 30 μM.)	NE (NE indicates less than 50% inhibition at 30 μM.)	NE (NE indicates less than 50% inhibition at 30 μM.)	inactive	–	–	–	–	–
CCOC(=O)C(F)(F)CC(=O)N1N=C(c2c(-c3ccc(Cl)cc3)c3ccccc3[nH]c2=O)CC1c1ccc(Cl)cc1 (stereo not drawn) [997-66, Ethyl 4-{5-(4-chlorophenyl)-3-[4-(4-chlorophenyl)-2-oxo-1,2-dihydroquinolin-3-yl]-4,5-dihydro-1H-pyrazol-1-yl}-2,2-difluoro-4-oxobutanoate]	NE (NE indicates less than 50% inhibition at 30 μM.)	NE (NE indicates less than 50% inhibition at 30 μM.)	NE (NE indicates less than 50% inhibition at 30 μM.)	NE (NE indicates less than 50% inhibition at 30 μM.)	no inhibition	–	–	–	–	–
O=C(O)CCC(=O)N1N=C(c2c(-c3ccc(Cl)cc3)c3ccccc3[nH]c2=O)CC1c1ccncc1Cl (stereo not drawn) [997-88, 4-(3-(4-(4-chlorophenyl)-2-oxo-1,2-dihydroquinolin-3-yl)-5-(3-chloropyridin-4-yl)-4,5-dihydro-1H-pyrazol-1-yl)-4-oxobutanoic acid]	NE (NE indicates less than 50% inhibition at 30 μM.)	NE (NE indicates less than 50% inhibition at 30 μM.)	NE (NE indicates less than 50% inhibition at 30 μM.)	NE (NE indicates less than 50% inhibition at 30 μM.)	inactive	–	–	–	–	–
O=C(O)CCC(=O)N1N=C(c2c(-c3ccc(Cl)cc3)c3ccccc3[nH]c2=O)CC1c1cnccn1 (stereo not drawn) [997-80, 4-(3-(4-(4-chlorophenyl)-2-oxo-1,2-dihydroquinolin-3-yl)-5-(pyrazin-2-yl)-4,5-dihydro-1H-pyrazol-1-yl)-4-oxobutanoic acid]	NE (NE indicates less than 50% inhibition at 30 μM.)	NE (NE indicates less than 50% inhibition at 30 μM.)	NE (NE indicates less than 50% inhibition at 30 μM.)	NE (NE indicates less than 50% inhibition at 30 μM.)	inactive	–	–	–	–	–
Cc1ccc2[nH]c(=O)c(C3=NN(C(=O)C(F)(F)CC(=O)O)C(c4ccc(Cl)cc4)C3)c(-c3ccc(Cl)cc3)c2c1 (single isomer, unassigned; (-)) [(−)-997-90]	–	–	–	–	–	200	130	1900	1900	I3 μM/Icontrol (mean ± SEM, %) GluN2C ([1]; listed as (−)-90): 7.0 ± 2.2%; IC50 [6, 10]: 210 nM; I3 μM/Icontrol (mean ± SEM, %) GluN2D ([2]; 3 μM compound with 100 μM glutamate and 30 μM glycine, control set as 1): 3.4 ± 1.2%; IC50 [7, 12]: 130 nM; I3 μM/Icontrol (mean ± SEM, %) GluN2A ([3]; listed as (−)-90): 33 ± 4.5%; I3 μM/Icontrol (mean ± SEM, %) GluN2B ([4]; listed as (−)-90): 34 ± 5.0%
O=C(O)CC(F)(F)C(=O)N1N=C(c2c(-c3ccc(Cl)cc3)c3ccccc3[nH]c2=O)CC1c1ccc(F)cc1 (stereo not drawn) [997-104, 4-(3-(4-(4-chlorophenyl)-2-oxo-1,2-dihydroquinolin-3-yl)-5-(4-fluorophenyl)-4,5-dihydro-1H-pyrazol-1-yl)-3,3-difluoro-4-oxobutanoic acid]	–	–	–	–	–	1600	810	20000	30000	fold decrease of potency at GluN2D in comparison to 997-74 ([2]; comparator 997-74): 16 fold; 2B IC50 / 2D IC50 ([2]; ratio of IC50 values): 37
O=C(CC(F)(F)C(=O)O)N1N=C(c2c(-c3ccc(Cl)cc3)c3ccccc3[nH]c2=O)CC1c1ccc(Cl)cc1 (stereo not drawn) [997-114, 4-(5-(4-chlorophenyl)-3-(4-(4-chlorophenyl)-2-oxo-1,2-dihydroquinolin-3-yl)-4,5-dihydro-1H-pyrazol-1-yl)-2,2-difluoro-4-oxobutanoic acid]	–	–	–	–	–	338	–	5670	8150	2A IC50 / 2D IC50 ([2]; ratio of IC50 values): 33; 2B IC50 / 2D IC50 ([2]; ratio of IC50 values): 48; IC50 ([7]; read-out: IC50 at GluN2D-containing receptors): 170 nM
